Test system: normal human fibroblasts
Experiment: Dermo-decontracting effect on dermal equivalent model (collagen matrix inoculated with fibroblasts), spontaneous contraction
Type: cell-based
Details: for % contraction: test compound 10 μM, dermal equivalent surface area at 0, 4, 8 and 24 hours, with respect to the control
From the text: The principle of this test consists in studying the effect of the test product on a dermal equivalent model composed of a collagen matrix inoculated with normal human fibroblasts.
These conditions are intended to mimic in vitro the dermal contractile phenomena which occur during facial expressions. This is because, under these conditions, the cells spontaneously express tensile forces which induce retraction of the collagen gel. […] The measurement of this surface area makes it possible to evaluate the relaxing effects of the substances brought into contact beforehand with the dermal equivalent.
Two series of attached dermal equivalents comprising normal human fibroblasts are prepared: a control series without any treatment and a series treated with the test compound (10 μM). The experiment is repeated three times.
The dermal equivalents are prepared as described in Asselineau et al., Exp. Cell. Res., 1985, 159, 536-539; Models in Dermatology, 1987, vol. 3, pp. 1-7, in the following proportions:
The treated dermal equivalent differs from the control dermal equivalent in that 10 μM of the test compound are added thereto.
The collagen used is type I collagen (commercial solution). It is extracted from calf skin by acid hydrolysis and stored in an acidic medium at +4° C. It polymerizes naturally by reheating to 37° C. and by decreasing the degree of acidity. The collagen is dialysed beforehand against successive baths of water+acetic acid.
The protocol is as follows: the 1.76×MEM medium is introduced, in the presence of additives (1% glutamine, 1% non-essential amino acids, 1% sodium pyruvate, 1% fungizone and 1% penicillin/streptomycin), the foetal calf serum and the 0.1N NaOH solution, into a 50 ml centrifuge tube stored in crushed ice. The fibroblasts, isolated from human skin explants, are then added at the concentration of 1.5×10^5 cells per 1 ml of culture medium.
A volume/volume mixture of collagen in acetic acid at 1/1000 is then slowly added, against the wall of the tube, so as to observe the appearance of a whitish cloud.
The combined product is then carefully mixed and distributed in the wells of a 12-well culture plate (Costar type, reference 3512) in a proportion of 2 ml of mixture per well. The final cell concentration is […], with a final concentration of collagen of 1 mg/ml. The culture plate is then placed in an incubator at 37° C. with 5% CO2.
Once formed after polymerization of the collagen, the dermal equivalents are left adhered to the culture support for 3 days and then detached from the support so that the contraction can begin. These detached dermal equivalents are taken out of the incubator in order to take images for the purpose of measuring their surface area, this being for each point of the kinetics of contraction (0, 4, 8 and 24 hours). They are immediately placed back in the incubator between each measurement point.
The evaluation of the spontaneous contraction of the treated (with the test compound) and control (without test compound) dermal equivalents is carried out by measuring their surface area at the different times mentioned after the beginning of the spontaneous contraction.
For this, a digital image is acquired for each treated or untreated dermal equivalent by means of a camera (CCD camera-Iris Sony DXC-107P) and the surface area is subsequently calculated on each image by means of an image analysis system (Zeiss Axiovision 3.0). […]

Row | Compound | % contraction | reduce the contraction of the fibroblasts, on average over the duration of the experiment, with respect to the control (tested at 10 μM)
1 | CCCCCCCCOC[C@H]1O[C@@H](n2cnc3c(N)ncnc32)[C@@H]2OC(C)(C)O[C@@H]21 [Compound E, 2′,3′-isopropylidene-5′-octyladenosine] | −26% | 
2 | CCOC[C@H]1O[C@@H](n2cnc3c(N)ncnc32)[C@@H]2OC(C)(C)O[C@@H]21 [Compound D, 2′,3′-isopropylidene-5′-ethyladenosine] | −21% | 
3 | CC(=O)OC[C@H]1O[C@@H](n2cnc3c(N)ncnc32)[C@@H]2OC(C)(C)O[C@@H]21 [Compound G, 2′,3′-isopropylidene-5′-acetyladenosine] | −30% | 
4 | Nc1ncnc2c1ncn2[C@@H]1O[C@H](CO)[C@@H](O)[C@H]1O [Adenosine, reference compound] | −15% | 15%

Reference: patent publication US20070237734A1, “ANTI-WRINKLE COSMETIC COMPOSITION” (L'OREAL, priority 2006, published 2007)
